In general, Kd refers to the concentration at which binding is half-saturated.

We go through 21 compounds from paper PMC7822123, “A Chemosensory Protein Detects Antifeedant in Locust (Locusta migratoria)” (Insects, 2020).

Each structure is given as a SMILES string. Entries after “also recorded” stand apart in the source; their conditions may differ. Read-outs that look alike come from different tables or passages of the source.

Data set [1] deals with T1, recombinant LmigCSPIII (Locusta migratoria, UniProt Q3LB86). Kind of data set: Fluorescent competitive binding assay with 1-NPN as reporter. The following applies: for binding affinity to LmigCSPIII (in words): among 78 tested compounds. The procedure: Compounds (Table 2) used in the binding assay were purchased from Sigma (St. Louis, MO, USA) and were of reagent grade. Ligand binding specificity was measured with a fluorescent assay on an FS-55 emission fluorescence spectrometer (Perkin-Elmer, Waltham, MA, USA), as previously described. […] The recombinant protein was dissolved in 50 mM Tris-Buffer (pH 7.4) and titrated with aliquots of 1 mM methanol solutions of the ligands to final concentrations of […]. The florescent probe 1-NPN was excited at 337 nm and emission spectra were recorded between 380 nm and 440 nm. We used Graphpad Prism 5 software (Graphpad Software, San Diego, CA, USA) to calculate dissociation constants and draw the binding curves.

Data set [2] concerns the target T1, recombinant LmigCSPIII. Described as above. Particulars: at a concentration of 10 µM.
Data set [3] has as its system Locusta migratoria fourth instar nymphs. Kind of data set: Dual-choice feeding assay with LmigCSPIII knockdown (dsRNA) and H2O-injected locusts. The data set is classed as in vivo. The procedure: (§1) For the dual-choice experiment, the feeding deterrence index (FDI) was calculated using the formula: FDI = (C − T)/(C + T), where C and T indicated control and treated leaf consumption weights, respectively. For non-choice experiment, the FDI was calculated using the formula: FDI = (C − T)/C. A regression curve line against feeding deterrence index was created by Graphpad Prism 9 software (Graphpad Software, San Diego, CA, USA). The DC50 was defined as the concentration of AMCAL that halved the value of the feeding deterrence index.
Double-stranded RNA was synthesized using the T7 RiboMAX™Express RNAi System (Promega, Madison, WI, USA), according to the manufacturer’s protocol. Briefly, we designed degenerate primers with a T7 promoter (Table 1) at the 5′ end based on an alignment of multiple LmigCSPIII sequences. The PCR-amplified fragment was purified and used as a template in the transcription reactions. After removing the DNA template and single-stranded RNA using a nuclease, we quantified the newly synthesized dsRNA and adjusted its concentration to 2.5 µg/µL. Locusts were anaesthetized on ice for easier handling during the injection process. dsRNA (2 µL) or DEPC (Diethy Pyrocarbonate) treated water (2 µL, Sangon Biotech) was injected into the dorsal intrasegmental membrane between the third and fourth abdominal segments of newly-molted third or fourth instar locusts using a microsyringe (Narishige, Tokyo, Japan), similarly to previous experiments.
The treatments and calculation methods for detecting the effects of suppression of LmigCSPIII on locusts are similar to in the dual-choice experiment.
To determine the effects of RNAi of LmigCSPIII on its role in detecting AMCAL, we created mutants by injecting with dsRNA of LmigCSPIII into fourth instar nymphs within 2 days after molting. These locusts were then provided with the corn leaves treated with AMCAL or solvent 72 h after injection. The duration of the experiment was 2 h.

For data set [4] the test system is unchanged. Kind of data set: Dual-choice feeding assay, feeding response with intact or excised antennae. It counts as in vivo. The method, then:
For the role of antenna or mouthparts in the detection of AMCAL, a dual-choice experiment was performed. Newly molted fourth instar locusts of similar weights were anesthetized on ice for several minutes. Antennae were carefully removed with fine scissors, and then the locusts were fed with fresh corn leaves for 24 h. The locusts were then placed in feeding boxes, each of which contained two pieces of corn leaves of the same size of 4 × 3 cm, one treated with AMCAL in solvent, and the other one treated with solvent alone. The two pieces of corn leaves were placed about 12 cm apart. Feeding response (FR) was defined as follows: a leaf that was ingested, regardless of amount, was scored as 1, whereas no consumption was scored as 0. The experimental duration was about 1 h. When approximately 50% of the control foliage had been consumed, the experiment was terminated, and the feeding amount was determined as described above.

Data set [5] has the same test system. Kind of data set: Feeding bioassay: amount consumed and feeding deterrence index. The data set is classed as in vivo. The procedure: New emerged fourth instar locust nymphs were starved 2 h before being introduced into a transparent plastic box (14 cm diameter, 8 cm high). For the non-choice experiment, the locusts were then supplied with two pieces of corn leaf (3 × 5 cm) of the same weight. One piece of the leaf was treated with an acetone solution of α-amylcinnamaldehyde (AMCAL) after the acetone evaporated completely, and the control leaf was just treated with same amount of actone. The natural concentrations of AMCAL found in non-host plants is usually less than 0.1% in weight. According to this, acetone solutions of AMCAL at concentrations of […] were used to treat corn leaves with a final concentration of 100 μg/cm^2, 50 μg/cm^2, 10 μg/cm^2, or 1 μg/cm^2, respectively.
Food consumption (S) was determined by the fresh/dry weight method as follows: a fresh corn leaf was cut in half from the main vein and weighted separately; one half was dried at 100 °C for 2 h to calculate fresh/dry weight ratio, calculated as R [34]; the other half, whose fresh weight was S1, was reserved for the feeding experiment. After feeding duration, the residual consumed leaf was dried and weighed as above, and the dry weight was labelled as S2. Food consumption was calculated as: S = S1/R − S2.
as §1

The test system of data set [6] is Locusta migratoria nymphs. The following applies: third instar, 100 μg/cm^2, after 3 or 4 days, vs control, p < 0.001.
The next data set relates to desert locust. On the set-up: method as in PMID 12770479. The following applies: 7 µg/g body weight; cited from earlier work.
The mark [7] stands for this setting: criterion for being regarded as able to bind, Figure 4, read-out: IC50 (concentration of ligand that halved the initial fluorescence of 1-NPN).

T1 sequence (Q3LB86 entry or part of it): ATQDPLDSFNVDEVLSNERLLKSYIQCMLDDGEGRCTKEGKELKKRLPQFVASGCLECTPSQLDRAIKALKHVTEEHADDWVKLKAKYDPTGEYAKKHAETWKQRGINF

With `CC(O)c1ccccc1` (racemic) [DL-sec-phenethyl alcohol], the IC50 at recombinant LmigCSPIII [1] (setting [7]) was less than 20 µM. For the compound `c1ccc(Nc2cccc3ccccc23)cc1` [1-NPN, N-phenyl-1-naphthylamine, reference compound], the Kd at recombinant LmigCSPIII [1] amounted to 3.3 µM. For `Nc1cccc2cc3ccccc3cc12` [1-aminoanthracene], the “binding affinity to LmigCSPIII (in words)” value (from here on “binding affinity”) at recombinant LmigCSPIII [1] is reported as “strongest affinity”. Turning to `Cc1cnc(C)cn1` [2,5-Dimetylpyrazine], at recombinant LmigCSPIII [1] (setting [7]), the IC50 is less than 20 µM.

For the compound `CCCCCC(C)=O` [2-heptanone], at recombinant LmigCSPIII [2], the “displacement of 1-NPN from LmigCSPIII” value is reported as “able to displace 1-NPN”. Besides, the IC50 at recombinant LmigCSPIII [1] (setting [7]) is less than 20 µM. For the compound `CC(C)CCO` [3-Methyl-1-butanol], the Kd at recombinant LmigCSPIII [1] (calculated from IC50 of 1-NPN displacement, read-out: dissociation constant (KD) of competitor) is 6.02 ± 0.17 µM. Further, the IC50 on recombinant LmigCSPIII [1] (setting [7]) is less than 20 µM. For the compound `CCCCC/C(C=O)=C/c1ccccc1` [AMCAL, α-amylcinnamaldehyde], the “feeding deterrence index (FDI)” value in data set [3] (1 μg/cm^2, RNAi group) is −2%; in data set [3] (10 μg/cm^2, control group (H2O-injected locusts)), 50%; in data set [3] (10 μg/cm^2, locusts injected with dsRNA of LmigCSPIII) it was 22%; in data set [3] (50 μg/cm^2, RNAi group), 69%. Moreover, on recombinant LmigCSPIII [1], the “binding affinity” value is on record as “strongest affinity; also recorded: highest affinity”. The IC50 at recombinant LmigCSPIII [1] (setting [7]) was less than 20 µM. Moreover, the “Feeding response (FR) to treated leaves” value was determined as 45% in data set [4] (50 μg/cm^2, antennae excised) and 47% in data set [4] (50 μg/cm^2, antennae intact). Also, the “mean consumption of food containing the chemical” value in data set [5] (1 μg/cm^2, p > 0.05, Dunnett test) was “slight and insignificant decrease”; in data set [5] (10 μg/cm^2, p < 0.01, Dunnett test), “Significant feeding inhibition”. In data set [5] (from regression curve of feeding deterrence index, Figure 5D), the “DC50 (concentration that halved the feeding deterrence index)” value came out at 12 μg/cm^2. In data set [6], the “weight increase of nymphs” value was “significantly less than that of the control group”. Take `O=Cc1ccccc1` [Benzaldehyde]: the IC50 on recombinant LmigCSPIII [1] was less than 20 µM. For the compound `N#CCc1ccccc1` [Benzeneacetonitrile], the IC50 at recombinant LmigCSPIII [1] was less than 20 µM. `OC1CCCCC1` [Cyclohexanol]: the IC50 on recombinant LmigCSPIII [1] is less than 20 µM. The same measure, in the same setting: the figure for `CCCCOC(=O)c1ccccc1C(=O)OCCCC` [Dibutyl phthalate] is less than 20 µM; for `CCOC(=O)c1ccccc1C(=O)OCC` [Diethyl phthalate] it is less than 20 µM. On to `C=C(C)C(=O)OCCCCCCCCCCCC` [Dodecyl 2-methylacrylate], for which the IC50 at recombinant LmigCSPIII [1] (setting [7]) is less than 20 µM. On the same count and under the same terms, the same measure for `COc1ccccc1O` [Guaicacol]: less than 20 µM; for `CCCCCCCCCCCCCCCCCO` [Heptadecanol]: less than 20 µM. Take `CCCCCCCCCCCCCCCCO` [Hexadecanol]: on recombinant LmigCSPIII [1] (setting [7]), the IC50 is less than 20 µM. Regarding `CCCCCCCCCCCCCCCO` [Pentadecanol], at recombinant LmigCSPIII [1] (setting [7]), the IC50 is less than 20 µM. As for `Oc1ccccc1` [Phenol], the IC50 on recombinant LmigCSPIII [1] is less than 20 µM. On to `C/C=C(\C)C(=O)O[C@H]1C[C@@H](OC(C)=O)[C@@]2(C(=O)OC)CO[C@H]3[C@@H](O)[C@@](C)([C@]45O[C@@]4(C)[C@H]4C[C@@H]5O[C@@H]5OC=C[C@@]54O)[C@H]4[C@]1(CO[C@]4(O)C(=O)OC)[C@@H]32` [azadirachtin], for which, in the data set on desert locust, the “physiological effects in the desert locust” value was “reduces fitness and fertility, and interferes with molting”. With `CCCCCCCC/C=C\CCCCCCCC(N)=O` [oleamide, Oleamide], on recombinant LmigCSPIII [1], the IC50 is less than 20 µM and the “binding affinity” value is given as “quite high binding affinity”. In the case of `CCC/C=C/C=O` [trans-2-hexenal, trans-2-Hexenal], the “displacement of 1-NPN from LmigCSPIII” value on recombinant LmigCSPIII [2] is recorded as “able to displace 1-NPN”. In addition, on recombinant LmigCSPIII [1], the IC50 was less than 20 µM.
